Each structure is given as a SMILES string.

In the assay the test system is CCI-rats (chronic constriction injury of the sciatic nerve); tactile allodynia in ipsilateral hindpaw, antinociception in contralateral hindpaw. On the set-up: species or system Sprague-Dawley rats. As to conditions: rat, in vivo.

Turning to `CN1CC[C@]23c4c5ccc(O)c4O[C@H]2[C@@H](O)C=C[C@H]3[C@H]1C5.Cl` [Morphine, Morphine hydrochloride, reference compound], the ED10 turned out to be 0.7 nmol; the ED20 was 3.5 nmol; the “time of peak antiallodynic and antinociceptive responses post-dosing” value was in the range of 0.5 to 0.75 h. The “dose-response at high i.t. doses” value (hydrochloride) is listed as “pronounced sub-maximal ‘ceiling’ effect”.

Values taken from US8188048B2 (priority 2006, dated 2012).
